Holding throughout (assay type): functional
In experiment [1] the test system is Micrococcus luteus. Kind of experiment: Compound was evaluated for the inhibition of growth of Micrococcus luteus; (12.5-25 ug/disk).
The subject of experiment [2] is P388. Kind of experiment: Compound was evaluated for its activity to inhibit growth of murine P388 lymphocytic leukemia. Conditions: Mus musculus, read-out: ED50 (the source's name).
The test system of experiment [3] is Breast cancer cell line. Kind of experiment: Compound was evaluated for its activity to inhibit growth of human breast cancer cell line.
For experiment [4], the system named is Leukemia cell. Kind of experiment: Compound was evaluated for its activity to inhibit growth of human leukemia cancer cell line.

Structures are written as SMILES. ≈ marks a conversion by molar mass, not a printed value.

`O[C@@]12CCCCCC[C@H]3CCN4CCC[C@H](CCCCCC[C@H]5CCN(CCC1)[C@@H]2O5)[C@H]4O3` [XESTOSPONGIN D]: the MIC in experiment [1] stood at 25 ug disk-1. The EC50 in experiment [2] is 1.7 µg/mL (≈ 3.67 µM). For the same molecule, the GI50 in experiment [3] was found to be 4.53 µM; in experiment [4] it was 3.62 µM.

As a reminder, the GI50 is the concentration at which growth is held to half of that of the control.
